pEC50: −log10 of the molar value.
Assays:
[1] = system: Human Rhinovirus 1B (HRVIB); test: H1-HeLa HRV-CTG EC50, HRV1B; type: cell-based; settings: Rhinovirus A, 96 h, H1-HeLa cells, MOI 0.5, 4 days, Celltiter-Glo, read-out: EC50 H1-HeLa_HRV1B_HRV-CTG 384-well Assay (per Ex. Z)
Description: Example Z: H1-HeLa HRV-CTG EC50
H1-Hela cell line (ATCC, Manassas, VA, Cat #CRL-1958) was maintained in Dulbecco's […] Essential Medium (DMEM) (Corning, New York, NY, Cat #15-018 CM) supplemented with 10% fetal bovine serum (FBS) (Hyclone, Logan, UT, Cat #SH30071-03), and 1× Penicillin-Streptomycin-L-Glutamine (Corning, New York, NY, Cat #30-009-CI). Cells were passaged 2 times per week to maintain sub-confluent densities and were used for experiments at passage 5-30. The Human Rhinovirus 1B (HRVIB) (ATCC, Manassas, VA, Cat #VR-1645), Human Rhinovirus 14 (HRV14) (ATCC, Manassas, VA, Cat #VR-284), and Human Rhinovirus 16 (HRV16) (ATCC, Manassas, VA, Cat #BR-283) was obtained through ATCC. Viral infection was monitored by determining viability of H1-HeLa cells as described below.
Test molecules are prepared in 100% DMSO in 384-well polypropylene plates (Greiner, Monroe, NC, Cat #784201) with 8 compounds per plate in grouped replicates of 4 at 10 serially diluted concentrations (1:3). […]
The test compounds were spotted to 384-well assay plates (Greiner, Monroe, NC, Cat #781091) at 200 nL per well using an Echo acoustic dispenser (Labcyte, Sunnyvale, CA). […] 40 μL per well of Celltiter-Glo reagent was added and the plates were incubated at room temperature for 15 minutes before reading the luminescence signal on an En Vision multimode plate reader (Perkin Elmer, Waltham, MA). […]

[2] = system: Respiratory syncytial virus recombinant with luciferase (RSV-Luc5); test: NHBE RSV-Luc5 384-well assay (EC50 RSVFLUC NHBE-384); type: cell-based; settings: human respiratory syncytial virus, 72 h, read-out: EC50 RSV FLUC NHBE 384 V2 (per Ex. U)
Description: Example U. NHBE RSV-Luc5 384-Well Assay (EC50 RSVFLUC NHBE-384)
Normal Human Bronchial Epithelial (NHBE) cells were purchased from Lonza (Walkersville, MD Cat #CC2540) and maintained in BEGM Bronchial Epithelial Cell Growth Medium BulletKit (Lonza CC-3170).
Cells were thawed, expanded, and were used for experiments at passage 2. Respiratory syncytial virus recombinant with luciferase (RSV-Luc5) (≥1×107 Infectious Units/ml (IU/ml) determined by TCID50) was purchased from Microbiologics (Saint Cloud, MN). Viral replication was determined in NHBE cells in the following manner.
Compounds are prepared in 100% DMSO in 384-well polypropylene plates (Greiner, Monroe, NC, Cat #784201) with 8 compounds per plate in grouped replicates of 4 at 10 serially diluted concentrations (1:3). The serially diluted compounds were transferred to low dead volume Echo plates (Labcyte, Sunnyvale, CA, Cat #LP-0200).
The test compounds were spotted to 384-well assay plates (Greiner, Monroe, NC, Cat #781091) at 200 nL per well. NHBE cells were harvested and suspended in BEGM Bronchial Epithelial Cell Growth Medium BulletKit and seeded to the pre-spotted assay plates at 5,000 cells per well in 30 μL. RSV-Luc5 virus was diluted in BEGM Bronchial Epithelial Cell Growth Medium BulletKit at 500,000 Infectious Units (IU) per mL and 10 μL per well was added to the assay plates containing cells and compounds, for an MOI of 1. The assay plates were incubated for 3 days at 37° C. and 5% CO2. At the end of incubation, One-Glo reagent (Promega, Madison, WI, Cat #E6120) was prepared. The assay plates and One-Glo reagent were equilibrated to room temperature for at least 15 minutes. 40 μL per well of One-Glo reagent was added and the plates were incubated at room temperature for 15 minutes before reading the luminescence signal on an En Vision multimode plate reader (Perkin Elmer, Waltham, MA). Remdesivir was used as positive control and DMSO was used as negative control. Values were normalized to the positive and negative controls (as 0% and 100% replication, respectively) and data was fitted using non-linear regression analysis by Gilead's dose response tool. The EC50 value for each compound was defined as the concentration reducing the viral replication by 50%.

SMILES	pEC50 [1]	pEC50 [2]
N#Cc1cc(F)cc(CO[C@H](COCCCCCCCCCCCCCCCCCC(F)(F)F)COP(=O)(O)OC[C@@]2(C#N)O[C@@H](c3ccc4c(N)ncnn34)[C@H](O)[C@@H]2O)c1 [Compound 1, ((2R,3S,4R,5S)-5-(4-aminopyrrolo[2,1-f][1,2,4]triazin-7-yl)-2-cyano-3,4-dihydroxytetrahydrofuran-2-yl)methyl ((R)-2-((3-cyano-5-fluorobenzyl)oxy)-3-((18,18,18-trifluorooctadecyl)oxy)propyl) hydrogen phosphate]	7.92	7.59
N#Cc1cc(F)cc(CO[C@H](CCCCCCCCCCCCCCCCCCC(F)(F)F)COP(=O)(O)OC[C@@]2(C#N)O[C@@H](c3ccc4c(N)ncnn34)[C@H](O)[C@@H]2O)c1 [Compound 2, ((2R,3S,4R,5S)-5-(4-aminopyrrolo[2,1-f][1,2,4]triazin-7-yl)-2-cyano-3,4-dihydroxytetrahydrofuran-2-yl)methyl ((R)-2-((3-cyano-5-fluorobenzyl)oxy)-21,21,21-trifluorohenicosyl) hydrogen phosphate]	7.21	7.52

Reference: US20240309028A1, “PHOSPHOLIPID COMPOUNDS AND METHODS OF MAKING AND USING THE SAME” (Gilead Sciences, Inc., priority 2023, published 2024)
